The values below come from US20240409585A1, “MACROCYCLIC IMMUNOMODULATORS” (priority 2021, published 2024).

Numbered stars: 1 amine (or outer) side, 2 acyl side, 3 side chain; on linkers, the order of the positions; unused ones are H or OH. Bridge positions count the residues as written; N and C are the ends. Square brackets hold non-standard residues; d marks the D form. Peptide text beside a SMILES is read from it. * marks the point of attachment. ξ: configuration not given here. X29 = O=C([C@H](Cc1ccc(-c2cc(F)cc(F)c2)cc1)N[*:1])[*:2]; Phe(4-COOH) = N[C@@H](Cc1ccc(C(=O)O)cc1)C(=O)O; Bip = N[C@@H](Cc1ccc(-c2ccccc2)cc1)C(=O)O; Phe(3-F) = N[C@@H](Cc1cccc(F)c1)C(=O)O; Phe(3-Me) = Cc1cccc(C[C@H](N)C(=O)O)c1; Val(3-OH) = CC(C)(O)[C@H](N)C(=O)O; 3Pal = N[C@@H](Cc1cccnc1)C(=O)O; 4Pal = N[C@@H](Cc1ccncc1)C(=O)O; Cha = N[C@@H](CC1CCCCC1)C(=O)O; Cit = NC(=O)NCCC[C@H](N)C(=O)O; Ile(3ξ) = CCC(C)[C@H](N)C(=O)O; Thr(3ξ) = CC(O)[C@H](N)C(=O)O; NMeNle = CCCC[C@H](NC)C(=O)O; ξCha = NC(CC1CCCCC1)C(=O)O; Carboxymethyl = O=C(O)C*; NMeA = CN[C@@H](C)C(=O)O; Nle = CCCC[C@H](N)C(=O)O; Dab = NCC[C@H](N)C(=O)O; Dap = NC[C@H](N)C(=O)O

T1 sequence (Q15116 25-288): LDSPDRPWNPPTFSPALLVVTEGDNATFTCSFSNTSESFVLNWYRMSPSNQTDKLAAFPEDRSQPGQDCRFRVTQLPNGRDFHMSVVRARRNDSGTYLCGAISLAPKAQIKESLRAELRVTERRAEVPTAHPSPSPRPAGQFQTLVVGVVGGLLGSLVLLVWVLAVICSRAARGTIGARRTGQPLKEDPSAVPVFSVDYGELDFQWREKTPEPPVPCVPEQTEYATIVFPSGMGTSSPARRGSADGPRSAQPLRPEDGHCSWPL

One test has as its target T1, PE-labeled human PD-L1-Ig binding to Jurkat cell line over-expressing human PD-1 (Jurkat-PD-1) (Homo sapiens, UniProt Q15116).
T1 construct: expressed in transfected cells; host or cells: Jurkat
Description: Jurkat-PD-1 Cell Binding High-Content Screening Assay (CBA): Method 1. The conditions noted are these: Jurkat-PD-1 cells, PE-labeled PD-L1-Ig; μM; read-out: CBA Method 1 μM.
Regarding `Cc1cccc(C[C@@H]2NC(=O)[C@H](CC(=O)O)NC(=O)[C@H](Cc3ccc(OCC(=O)O)cc3)NC(=O)[C@H](C(C)O)NC(=O)CSC[C@@H](C(=O)N[C@@H](CO)C(=O)NCC(=O)N[C@@H](CO)C(N)=O)NC(=O)[C@H](C(C)O)NC(=O)[C@H](C(C)C)NC(=O)C(CC3CCCCC3)NC(=O)[C@H](CCN)NC(=O)[C@@H](CC(C)C)NC(=O)[C@H](C)N(C)C(=O)[C@H](Cc3ccc(OCC(=O)O)cc3)NC(=O)[C@H](Cc3ccc(-c4ccccc4)cc3)NC(=O)[C@H](Cc3ccc(C(=O)O)cc3)NC2=O)c1` (stereo partly drawn) [Example 5004] ({CH2CO}-[Thr(3ξ)]Y(Carboxymethyl)D[Phe(3-Me)][Phe(4-COOH)][Bip]Y(Carboxymethyl)[NMeA][dL][Dab][ξCha]V[Thr(3ξ)]CSGS-NH2; thioether N-14), the IC50 worked out at 0.03 µM.

Staying with this test, now noted: Jurkat-hPD-1 cells, PE-labeled PD-L1-Ig 20 nM final; read-out: Jurkat HPDL1 PD1 IC50 (uM) (Method 1).
Regarding `CC(C)C[C@@H]1NC(=O)[C@H](CCCNC(=N)N)NC(=O)[C@@H](CC(C)C)NC(=O)[C@H](C)N(C)C(=O)[C@H](CCC(=O)O)NC(=O)[C@H](Cc2ccc(-c3ccccc3)cc2)NC(=O)[C@H](C(C)C)NC(=O)[C@H](Cc2c[nH]c3ccccc23)NC(=O)[C@H](CC(=O)O)NC(=O)[C@H](Cc2ccc(O)cc2)NC(=O)[C@H](CC(N)=O)NC(=O)CSC[C@@H](C(=O)N[C@@H](C)C(N)=O)NC(=O)[C@H]([C@@H](C)O)NC(=O)[C@H](C(C)C)NC1=O` [Compound 1254] ({CH2CO}-NYDWV[Bip]E[NMeA][dL]RLVTCA-NH2; thioether N-14), the IC50 amounted to 0.03 µM.

With `Cc1cccc(C[C@@H]2NC(=O)[C@H](CC(N)=O)NC(=O)CSC[C@@H](C(=O)N[C@@H](C)C(N)=O)NC(=O)[C@H]([C@@H](C)O)NC(=O)[C@H](C(C)C)NC(=O)[C@H](CC(C)C)NC(=O)[C@H](CCN)NC(=O)[C@@H](CC(C)C)NC(=O)[C@H](C)N(C)C(=O)[C@H](CCCNC(N)=O)NC(=O)[C@H](Cc3ccc(-c4ccccc4)cc3)NC(=O)[C@H](C(C)C)NC(=O)[C@H](Cc3c[nH]c4ccccc34)NC(=O)[C@H](CC(=O)O)NC2=O)c1` [Compound 1311] ({CH2CO}-N[Phe(3-Me)]DWV[Bip][Cit][NMeA][dL][Dab]LVTCA-NH2; thioether N-14), the IC50 came out at 0.05 µM.

Turning to `CC[C@H](C)[C@@H]1NC(=O)[C@H](Cc2ccc(-c3ccccc3)cc2)NC(=O)[C@H](C(C)(C)O)NC(=O)[C@H](Cc2cccc(C)c2)NC(=O)[C@H](CC(=O)O)NC(=O)[C@H](Cc2ccc(O)cc2)NC(=O)[C@H](CC(N)=O)NC(=O)CSC[C@@H](C(=O)N[C@H](C)C(N)=O)NC(=O)[C@H]([C@@H](C)O)NC(=O)[C@H](C(C)C)NC(=O)[C@H](CC2CCCCC2)NC(=O)[C@H](CCN)NC(=O)[C@@H](CC(C)C)NC(=O)[C@H](C)N(C)C1=O` [Compound 1692] ({CH2CO}-NYD[Phe(3-Me)][Val(3-OH)][Bip]I[NMeA][dL][Dab][Cha]VTC[dA]-NH2; thioether N-14), the IC50 was 0.08 µM.

Consider `CC(C)C[C@@H]1NC(=O)[C@H](CCN)NC(=O)[C@@H](CC(C)C)NC(=O)[C@H](C)N(C)C(=O)[C@H](CCCNC(=N)N)NC(=O)[C@H](Cc2ccc(-c3ccccc3)cc2)NC(=O)[C@H](C(C)C)NC(=O)[C@H](Cc2c[nH]c3ccccc23)NC(=O)[C@H](CC(=O)O)NC(=O)[C@H](Cc2ccc(OCC(=O)O)cc2)NC(=O)[C@H](Cc2cccnc2)NC(=O)CSC[C@@H](C(=O)N[C@@H](C)C(N)=O)NC(=O)[C@H]([C@@H](C)O)NC(=O)[C@H](C(C)C)NC1=O` [Compound 1158] ({CH2CO}-[3Pal]Y(Carboxymethyl)DWV[Bip]R[NMeA][dL][Dab]LVTCA-NH2; thioether N-14), for which the IC50 was 0.03 µM.

For `Cc1cccc(C[C@@H]2NC(=O)[C@H](CC(=O)O)NC(=O)[C@H](Cc3ccc(C(=O)O)cc3)NC(=O)[C@H](Cc3ccc(OCC(=O)O)cc3)NC(=O)CSC[C@@H](C(=O)N[C@H](CC(N)=O)C(N)=O)NC(=O)[C@H](CO)NC(=O)[C@H](C(C)C)NC(=O)[C@H](CC(C)C)NC(=O)[C@H](CCN)NC(=O)[C@@H](CC(C)C)NC(=O)[C@H](C)N(C)C(=O)[C@H](C(C)C)NC(=O)[C@H](Cc3ccc(-c4ccccc4)cc3)NC(=O)[C@H](CC(C)C)NC2=O)c1` [Compound 2112] ({CH2CO}-Y(Carboxymethyl)[Phe(4-COOH)]D[Phe(3-Me)]L[Bip]V[NMeA][dL][Dab]LVSC[dN]-NH2; thioether N-14), the IC50 amounted to 0.02 µM.

Turning to `Cc1cccc(C[C@@H]2NC(=O)[C@H](CC(=O)O)NC(=O)[C@H](Cc3ccc(OCC(=O)O)cc3)NC(=O)[C@H](C(C)O)NC(=O)CSC[C@@H](C(=O)N[C@H](CC(N)=O)C(N)=O)NC(=O)[C@H](CO)NC(=O)[C@H](C(C)(C)O)NC(=O)[C@H](CC3CCCCC3)NC(=O)[C@H](CCN)NC(=O)[C@@H](CC(C)C)NC(=O)[C@H](C)N(C)C(=O)[C@H](Cc3ccc(O)cc3)NC(=O)[C@H](Cc3ccc(-c4ccccc4)cc3)NC(=O)[C@H](Cc3ccc(O)cc3)NC2=O)c1` (stereo partly drawn) [Compound 2142] ({CH2CO}-[Thr(3ξ)]Y(Carboxymethyl)D[Phe(3-Me)]Y[Bip]Y[NMeA][dL][Dab][Cha][Val(3-OH)]SC[dN]-NH2; thioether N-14), the IC50 was 0.18 µM.

For `CCNC(=O)[C@H](CCN)NC(=O)[C@@H]1CSCC(=O)N[C@@H]([C@@H](C)O)C(=O)N[C@@H](Cc2ccc(OCC(=O)O)cc2)C(=O)N[C@@H](CC(=O)O)C(=O)N[C@@H](Cc2cccc(C)c2)C(=O)N[C@@H](Cc2cccc(F)c2)C(=O)N[C@@H](Cc2ccc(-c3ccccc3)cc2)C(=O)N[C@@H](Cc2ccc(OCC(=O)O)cc2)C(=O)N(C)[C@@H](C)C(=O)N[C@H](CC(C)C)C(=O)N[C@@H](CCN)C(=O)N[C@@H](CC2CCCCC2)C(=O)N[C@@H](C(C)(C)O)C(=O)N[C@@H](CO)C(=O)N1` [Compound 1844] ({CH2CO}-TY(Carboxymethyl)D[Phe(3-Me)][Phe(3-F)][Bip]Y(Carboxymethyl)[NMeA][dL][Dab][Cha][Val(3-OH)]SC[Dab]-NHEt; thioether N-14), the IC50 turned out to be 0.02 µM.

In the case of `Cc1cccc(C[C@@H]2NC(=O)[C@H](CC(=O)O)NC(=O)[C@H](Cc3ccc(OCC(=O)O)cc3)NC(=O)[C@H](CN)NC(=O)CSC[C@@H](C(=O)N[C@@H](C)C(N)=O)NC(=O)[C@H]([C@@H](C)O)NC(=O)[C@H](C(C)C)NC(=O)[C@H](CC(C)C)NC(=O)[C@H](CCN)NC(=O)[C@@H](CC(C)C)NC(=O)[C@H](C)N(C)C(=O)[C@H](C(C)C)NC(=O)[C@H](Cc3ccc(-c4ccccc4)cc3)NC(=O)[C@H](C(C)C)NC2=O)c1` [Compound 1418] ({CH2CO}-[Dap]Y(Carboxymethyl)D[Phe(3-Me)]V[Bip]V[NMeA][dL][Dab]LVTCA-NH2; thioether N-14), the IC50 was found to be 0.01 µM.

For the compound `CCC(C)[C@@H]1NC(=O)[C@H](Cc2ccc(-c3ccccc3)cc2)NC(=O)[C@H](CC(C)C)NC(=O)[C@H](Cc2c[nH]c3ccccc23)NC(=O)[C@H](CC(=O)O)NC(=O)[C@H](Cc2ccc(C(=O)O)cc2)NC(=O)[C@H](Cc2ccc(OCC(=O)O)cc2)NC(=O)CSC[C@@H](C(=O)N[C@@H](CC(N)=O)C(N)=O)NC(=O)[C@H](CO)NC(=O)[C@H](C(C)C)NC(=O)[C@H](CC2CCCCC2)NC(=O)[C@H](CCN)NC(=O)[C@@H](CC(C)C)NC(=O)[C@H](C)N(C)C1=O` (stereo partly drawn) [Compound 1923] ({CH2CO}-Y(Carboxymethyl)[Phe(4-COOH)]DWL[Bip][Ile(3ξ)][NMeA][dL][Dab][Cha]VSCN-NH2; thioether N-14), the IC50 was determined as 0.02 µM.

As for `Cc1cccc(C[C@@H]2NC(=O)[C@H](CC(=O)O)NC(=O)[C@H](Cc3ccc(C(=O)O)cc3)NC(=O)[C@H](Cc3ccc(OCC(=O)O)cc3)NC(=O)CSC[C@@H](C(=O)N[C@@H](C)C(N)=O)NC(=O)[C@H]([C@@H](C)O)NC(=O)[C@H](C(C)C)NC(=O)[C@H](CC(C)C)NC(=O)[C@H](CCN)NC(=O)[C@@H](CC(C)C)NC(=O)[C@H](C)N(C)C(=O)[C@H](CCCNC(N)=O)NC(=O)[C@H](Cc3ccc(-c4ccccc4)cc3)NC(=O)[C@H](C(C)C)NC2=O)c1` [Compound 1574] ({CH2CO}-Y(Carboxymethyl)[Phe(4-COOH)]D[Phe(3-Me)]V[Bip][Cit][NMeA][dL][Dab]LVTCA-NH2; thioether N-14), the IC50 amounted to 0.02 µM.

Turning to `CC[C@H](C)[C@@H]1NC(=O)[C@H](Cc2ccc(-c3ccccc3)cc2)NC(=O)[C@H](C(C)C)NC(=O)[C@H](Cc2cccc(C)c2)NC(=O)[C@H](CC(=O)O)NC(=O)[C@H](Cc2ccc(C(=O)O)cc2)NC(=O)[C@H](Cc2ccc(OCC(=O)O)cc2)NC(=O)CSC[C@@H](C(=O)N[C@@H](C)C(N)=O)NC(=O)[C@H]([C@@H](C)O)NC(=O)[C@H](C(C)C)NC(=O)[C@H](CC(C)C)NC(=O)[C@H](CCN)NC(=O)[C@@H](CC(C)C)NC(=O)[C@H](C)N(C)C1=O` [Compound 1572] ({CH2CO}-Y(Carboxymethyl)[Phe(4-COOH)]D[Phe(3-Me)]V[Bip]I[NMeA][dL][Dab]LVTCA-NH2; thioether N-14), the IC50 stood at 0.01 µM.

`CC(C)C[C@@H]1NC(=O)[C@H](CCCNC(=N)N)NC(=O)[C@@H](CC(C)C)NC(=O)[C@H](C)N(C)C(=O)[C@H](CCCNC(=N)N)NC(=O)[C@H](Cc2ccc(-c3cc(F)cc(F)c3)cc2)NC(=O)[C@H](C(C)C)NC(=O)[C@H](Cc2c[nH]c3ccccc23)NC(=O)[C@H](CC(=O)O)NC(=O)[C@H](Cc2ccc(O)cc2)NC(=O)[C@H](Cc2ccccc2)NC(=O)CSC[C@@H](C(=O)N[C@@H](C)C(N)=O)NC(=O)[C@H]([C@@H](C)O)NC(=O)[C@H](C(C)C)NC1=O` [Compound 1068] ({CH2CO}-FYDWV[X29]R[NMeA][dL]RLVTCA-NH2; thioether N-14): the IC50 was 0.17 µM.

On to `CCCC[C@@H]1NC(=O)[C@H](Cc2ccc(-c3ccccc3)cc2)NC(=O)[C@H](C(C)C)NC(=O)[C@H](Cc2c[nH]c3ccccc23)NC(=O)[C@H](CC(=O)O)NC(=O)[C@H](Cc2ccc(C(=O)O)cc2)NC(=O)[C@H](Cc2ccncc2)NC(=O)CSC[C@@H](C(=O)N[C@@H](CC(N)=O)C(N)=O)NC(=O)[C@H](CO)NC(=O)[C@H](C(C)C)NC(=O)[C@H](CC2CCCCC2)NC(=O)[C@H](CCN)NC(=O)[C@@H](C)NC(=O)[C@H](CCCC)N(C)C1=O` [Compound 2089] ({CH2CO}-[4Pal][Phe(4-COOH)]DWV[Bip][Nle][NMeNle][dA][Dab][Cha]VSCN-NH2; thioether N-14), for which the IC50 is 0.05 µM.
